Where a name gives a salt, the structure may show the parent alone.
target: 5HT3a receptor expressed in HEK-293T cells (Homo sapiens (Human), UniProt P46098); experiment: Inhibition of Ca flux activity of 5HT3 in vitro assay; format: cell-based; settings: calcium flux, 5HT 216 nM, approximate values
Procedure: Inhibition of Ca Flux Activity of 5HT3 In Vitro Assay
The 5HT3 antagonist activity of the compounds of the invention was determined by measuring the ability of the compounds to inhibit the calcium flux activity of […] receptor expressed in HEK-293T cells. HEK-293T cells were transfected with the 5HT3a expression construct using Xtreme Gene 9 (Roche) in 150 mm tissue culture treated plates and incubated for 24 hours at 37° C. Cells were then split and plated at a density of 60K cells/well in poly-lysine coated, black 96-well plates with clear bottoms (BD BioSciences) and incubated overnight at 37° C. Growth media was removed and cells loaded with 200 uL calcium indicator dye in HBSS containing 20 mM HEPES (Calcium 5 Assay kit, Molecular Devices) and incubated at 37° C. for 1 hour. While cells were incubating, the 10× antagonist and agonist/antagonist addition plates were made. For 10× antagonist plate: half log serial dilutions (final concentrations range from 10^−7 through 10^−10 with the bottom well a negative, no ligand control) were made from test compounds in DMSO at a 1000× concentration and then diluted to 10× in HBSS/20 mM HEPES. For addition plate: 5HT was diluted to 100× in HBSS/20 mM HEPES (final concentration in the assay—216 nM) and 15 uL was added to each well of the addition plate, 15 uL of 10× compound was also added to the addition plate, and finally 120 uL of HBSS/20 mM HEPES (for a total of 150 uL). Cells were then removed from the incubator and equilibrated to room temperature for 10 minutes, then 22.5 uL of 10× test compounds were added in triplicate to the plates and incubated at room temperature for 10 minutes (Tropisetron was used as a positive control in every assay). Test plate and addition plate were loaded into the FlexStation III (Molecular Devices), and using the fluidics, 22.5 uL compound additions were made (at t=˜17 seconds), and fluorescence was measured for 90 seconds, reading every 2.2 seconds. Data sets were analyzed as max minus min using Software Max Pro (Molecular Devices). IC50 curves were generated using non-linear regression in GraphPad Prism.

5HT3a receptor expressed in HEK-293T cells, sequence (P46098 24-478): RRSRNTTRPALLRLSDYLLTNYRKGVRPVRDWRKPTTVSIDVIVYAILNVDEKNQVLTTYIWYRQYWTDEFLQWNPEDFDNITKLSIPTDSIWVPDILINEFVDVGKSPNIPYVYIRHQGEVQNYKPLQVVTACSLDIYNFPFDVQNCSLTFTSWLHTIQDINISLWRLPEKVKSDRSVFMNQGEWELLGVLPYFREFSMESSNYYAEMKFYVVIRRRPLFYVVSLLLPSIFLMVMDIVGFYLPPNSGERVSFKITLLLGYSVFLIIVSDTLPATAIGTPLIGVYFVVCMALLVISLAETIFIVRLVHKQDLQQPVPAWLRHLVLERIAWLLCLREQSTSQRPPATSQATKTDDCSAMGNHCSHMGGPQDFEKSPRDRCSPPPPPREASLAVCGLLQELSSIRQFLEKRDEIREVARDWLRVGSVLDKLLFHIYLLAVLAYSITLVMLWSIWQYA

In order of rising IC50:
1. Cc1c(C(=O)OC2C[C@H]3CCC[C@@H](C2)N3C)c2ccccc2n1CCF (stereo partly drawn) [Example 88, (1R,3R,5S)-9-methyl-9-azabicyclo[3.3.1]nonan-3-yl 1-(2-fluoroethyl)-2-methyl-1H-indole-3-carboxylate, 2,2,2-trifluoroacetate]  0.22 nM
2. CN1[C@@H]2COC[C@H]1CC(OC(=O)c1cn(CC(F)F)c3ccc(F)cc13)C2 (stereo partly drawn) [Example 58, (1R,5S,7S)-9-methyl-3-oxa-9-azabicyclo[3.3.1]nonan-7-yl 1-(2,2-difluoroethyl)-5-fluoro-1H-indole-3-carboxylate, 2,2,2-trifluoroacetate]  0.24 nM
3. CN1C2COCC1CC(NC(=O)c1cn(-c3cncnc3)c3ccccc13)C2 [Example 120, N-((1R,5S,7S)-9-methyl-3-oxa-9-azabicyclo[3.3.1]nonan-7-yl)-1-(pyrimidin-5-yl)-1H-indole-3-carboxamide, 2,2,2-trifluoroacetate]  0.39 nM
4. CN1[C@@H]2CCC[C@H]1CC(OC(=O)c1cn(CC(F)F)c3ccc(F)cc13)C2 (stereo partly drawn) [Example 60, (1R,3R,5S)-9-methyl-9-azabicyclo[3.3.1]nonan-3-yl 1-(2,2-difluoroethyl)-5-fluoro-1H-indole-3-carboxylate, 2,2,2-trifluoroacetate]  0.44 nM
5. CN1[C@@H]2COC[C@H]1CC(NC(=O)c1cn(CC(F)F)c3ccc(F)cc13)C2 (stereo partly drawn) [Example 63, 1-(2,2-difluoroethyl)-5-fluoro-N-((1R,5S,7S)-9-methyl-3-oxa-9-azabicyclo[3.3.1]nonan-7-yl)-1H-indole-3-carboxamide, 2,2,2-trifluoroacetate]  0.49 nM
6. CN1[C@@H]2COC[C@H]1CC(NC(=O)c1cn(S(C)(=O)=O)c3ccc(F)cc13)C2 (stereo partly drawn) [Example 36, 5-fluoro-N-((1R,5S,7S)-9-methyl-3-oxa-9-azabicyclo[3.3.1]nonan-7-yl)-1-(methylsulfonyl)-1H-indole-3-carboxylate, 2,2,2-trifluoroacetate]  0.5 nM
7. CN1C2COCC1CC(OC(=O)c1cn(-c3ccc(O)nn3)c3ccccc13)C2 [Example 169, (1R,5S,7s)-9-methyl-3-oxa-9-azabicyclo[3.3.1]nonan-7-yl 1-(6-hydroxypyridazin-3-yl)-1H-indole-3-carboxylate, 2,2,2-trifluoroacetic acid salt]  0.598 nM
8. CN1[C@@H]2COC[C@H]1C[C@@H](NC(=O)c1cn(-c3nccs3)c3ncccc13)C2 [Example 146, N-((1R,5S,7s)-9-methyl-3-oxa-9-azabicyclo[3.3.1]nonan-7-yl)-1-(thiazol-2-yl)-1H-pyrrolo[2,3-b]pyridine-3-carboxamide, 2,2,2-trifluoroacetic acid salt]  0.702 nM
9. CN1C2COCC1CC(OC(=O)c1cn(CCF)c3ccc(C#N)cc13)C2 [Example 160, (1R,5S,7s)-9-methyl-3-oxa-9-azabicyclo[3.3.1]nonan-7-yl 5-cyano-1-(2-fluoroethyl)-1H-indole-3-carboxylate, 2,2,2-trifluoroacetic acid salt]  0.746 nM
10. CN1C2COCC1CC(NC(=O)c1cn(-c3nccs3)c3ccccc13)C2 [Example 118, N-((1R,5S,7S)-9-methyl-3-oxa-9-azabicyclo[3.3.1]nonan-7-yl)-1-(thiazol-2-yl)-1H-indole-3-carboxamide, 2,2,2-trifluoroacetate]  0.86 nM
11. CN1C2COCC1CC(NC(=O)c1cn(-c3ccsn3)c3ccccc13)C2 [Example 153, 1-(isothiazol-3-yl)-N-((1R,5S,7s)-9-methyl-3-oxa-9-azabicyclo[3.3.1]nonan-7-yl)-1H-indole-3-carboxamide, 2,2,2-trifluoroacetic acid salt]  0.87 nM
12. CN1[C@@H]2CC[C@H]1CC(OC(=O)c1c(Cl)n(CCF)c3ccccc13)C2 (stereo partly drawn) [Example 55, (1R,3R,5S)-8-methyl-8-azabicyclo[3.2.1]octan-3-yl 2-chloro-1-(2-fluoroethyl)-1H-indole-3-carboxylate, 2,2,2-trifluoroacetate]  0.9 nM
13. CN1[C@@H]2CC[C@H]1CC(OC(=O)c1cn(C3CCOC3)c3ccccc13)C2 (stereo partly drawn) [Example 42, (1R,3R,5S)-8-methyl-8-azabicyclo[3.2.1]octan-3-yl 1-(tetrahydrofuran-3-yl)-1H-indole-3-carboxylate, 2,2,2-trifluoroacetate]  0.94 nM
14. CN1C2CCCC1CC(OC(=O)c1cn(CC(F)F)c3ncccc13)C2 [Example 61, (1R,3R,5S)-9-methyl-9-azabicyclo[3.3.1]nonan-3-yl 1-(2,2-difluoroethyl)-1H-pyrrolo[2,3-b]pyridine-3-carboxylate, 2,2,2-trifluoroacetate]  1 nM
15. CN1[C@@H]2COC[C@H]1C[C@@H](NC(=O)c1cn(C(F)(F)C(F)F)c3ncc(F)cc13)C2 [Example 53, 5-fluoro-N-((1R,5S,7S)-9-methyl-3-oxa-9-azabicyclo[3.3.1]-nonan-7-yl)-1-(1,1,2,2-tetrafluoroethyl)-1H-pyrrolo[2,3-b]pyridine-3-carboxamide, 2,2,2-trifluoroacetate]  1.05 nM
16. CN1C2COCC1CC(NC(=O)c1cn(C(C)(C)C(F)(F)F)c3ncccc13)C2 [Example 69, N-((1R,5S,7S)-9-methyl-3-oxa-9-azabicyclo[3.3.1]nonan-7-yl)-1-(1,1,1-trifluoro-2-methylpropan-2-yl)-1H-pyrrolo[2,3-b]pyridine-3-carboxamide, 2,2,2-trifluoroacetate]  1.06 nM
17. CN1[C@@H]2COC[C@H]1CC(NC(=O)c1cn(CC(F)F)c3ncc(F)cc13)C2 (stereo partly drawn) [Example 109, 1(2,2-difluoroethyl)-5-fluoro-N-((1R,5S,7S)-9-methyl-d3-3-oxa-9-azabicyclo[3.3.1]nonan-7-yl)-1H-pyrrolo[2,3-b]pyridine-3-carboxamide]  1.11 nM
18. O=C(OC1CC2COCC(C1)N2)c1cn(-c2cnccn2)c2ccccc12 [Example 141, (1R,5S,7s)-3-oxa-9-azabicyclo[3.3.1]nonan-7-yl 1-(pyrazin-2-yl)-1H-indole-3-carboxylate, 2,2,2-trifluoroacetic acid salt]  1.12 nM
19. (1R,5S,7s)-9-methyl-3-oxa-9-azabicyclo[3.3.1]nonan-7-yl 1-(6-hydroxypyridazin-3-yl)-1H-indole-3-carboxylate, 2,2,2-trifluoroacetic acid salt [Example 32]  1.38 nM
20. CCS(=O)(=O)n1cc(C(=O)OC2C[C@H]3COC[C@@H](C2)N3)c2ccccc21 (stereo partly drawn) [Example 133, (1R,5S,7S)-3-oxa-9-azabicyclo[3.3.1]nonan-7-yl 1-(ethylsulfonyl)-1H-indole-3-carboxylate, 2,2,2-trifluoroacetate]  1.5 nM
21. CC(C)S(=O)(=O)n1cc(C(=O)O[C@H]2C[C@H]3COC[C@@H](C2)N3)c2ccccc21  1.8 nM
22. CN1C2COCC1CC(NC(=O)c1cn(-c3cscn3)c3ncc(F)cc13)C2 [Example 163, 5-fluoro-N-((1R,5S,7s)-9-methyl-3-oxa-9-azabicyclo[3.3.1]nonan-7-yl)-1-(thiazol-4-yl)-1H-pyrrolo[2,3-b]pyridine-3-carboxamide, 2,2,2-trifluoroacetic acid salt]  1.81 nM
23. CN1[C@@H]2CCC[C@H]1CC(NC(=O)c1cn(CC(F)F)c3ccc(F)cc13)C2 (stereo partly drawn) [Example 98, 1-(2,2-difluoroethyl)-5-fluoro-N-((1R,3R,5S)-9-methyl-9-azabicyclo[3.3.1]nonan-3-yl)-1H-indole-3-carboxamide, 2,2,2-trifluoroacetate]  5.45 nM

— US9303045B2, “5-HT3 receptor antagonists” (Takeda Pharmaceutical Company Limited, priority 2013, dated 2016)
